This data set relates to rat chronic carcinogenicity bioassay, TD50. Nature of the data set: DSSTox (CPDBAS) Carcinogenic Potency Database Summary Rat Bioassay Results. The settings on record: for Potency: active compounds read low; for outcome: TD50_Rat_Note: no positive results. The method, boiled down:
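The activity score maps log10(1/TD50_Rat_mmol) linearly onto 1–100; actives without a computed TD50, such as mixtures, receive 50. Source data are chronic rat carcinogenicity tests, using the most positive experiment for each sex.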

Setting [1] is: TargetSites_Rat_Female: no positive results.

Several values for one entry are separate records, joined by “and”; a condition that tells them apart may be missing. Equal values may be shown once. Activity calls are given as the source filed them.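 How the source made its calls: active means at least one rat sex group has a carcinogenic potency value and tumor site recorded; inconclusive means only rat studies were judged inadequate by the national testing program; inactive means no potency or tumor site, with negative rat experiments.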

As for `CCCCCCCC(=O)OCC(COC(=O)CCCCCCC)OC(=O)CCCCCCC`, the Potency is 5490 mg/kg/day.

Consider `O=C1NC(c2ccc([N+](=O)[O-])s2)Nc2ccccc21` (centres undefined), for which, under “TargetSites_Rat_Female: all tumor bearing animals”, the Potency is 1.53 mg/kg/day.

As for `C1CCNCC1`, the outcome under setting [1] is “inactive; no positive results”.

Consider `ClCc1ccccc1`, for which the outcome under setting [1] was “inactive; no positive results”.

With `O=NN(CCCl)C(=O)N[C@@H]1[C@@H](O)[C@H](O)[C@@H](CO)O[C@@H]1O`, the Potency (TD50_Rat_Note: positive test results only by intraperitoneal or intravenous injection, TD50 is harmonic mean of more than one positive, TargetSites_Rat_Female: peritoneal cavity) is 0.0375 mg/kg/day.

Regarding `Cc1cn([C@H]2C[C@H](N=[N+]=[N-])[C@@H](CO)O2)c(=O)[nH]c1=O`, the Potency (TargetSites_Rat_Female: vagina) is 11600 mg/kg/day.

With `O.[Cd+2].[Cl-].[Cl-]`, the outcome under setting [1] is “inactive; no positive results”.

With `C[C@H]1CCCCN1N=O`, the Potency (TargetSites_Rat_BothSexes: nervous system) is 13.2 mg/kg/day.

For the compound `Nc1c(Cl)cc(Cl)cc1Cl`, the outcome was “inactive; no positive results”.

`O=Cc1ccccc1`: the outcome under setting [1] is “inactive; no positive results”.

On to `CC(=O)Nc1ccc(-c2ccccc2)cc1O`, for which the outcome under setting [1] was inactive.

Turning to `C1CCC(C(CC2CCCCN2)C2CCCCC2)CC1` (centres undefined), the outcome under setting [1] was “inactive; no positive results”.

In the case of `ClC(Cl)=C(Cl)c1c(Cl)c(Cl)c(Cl)c(Cl)c1Cl`, the outcome under setting [1] is “inactive; no positive results”.

In the case of `CN(N=O)c1cccnc1`, the result under setting [1] was inactive.

Take `O=[N+]([O-])c1ccc(-c2cnc3ccccn23)o1`: the Potency (TD50_Rat_Note: TD50 is harmonic mean of more than one positive test, TargetSites_Rat_Female: esophagus, kidney, mammary gland, stomach) is 13.6 mg/kg/day.

Turning to `NC(=O)N(CC(=O)O)N=O`, the Potency (TD50_Rat_Note: TD50 is harmonic mean of more than one positive test, greater than ten-fold variation among TD50 values for positive res, TargetSites_Rat_Female: mammary gland, small intestine) is 4.31 mg/kg/day.

In the case of `Cc1cc(Cc2cc(C)cc(C(C)(C)C)c2O)c(O)c(C(C)(C)C)c1`, the outcome under setting [1] is “inactive; no positive results”.

For the compound `C1CCCNCCC1`, under setting [1], the outcome is “inactive; no positive results”.

Turning to `Oc1ccc(O)cc1`, the Potency (TD50_Rat_Note: TD50 is harmonic mean of more than one positive test, TargetSites_Rat_Female: hematopoietic system) was 82.8 mg/kg/day.

In the case of `Cc1ccc2ncccc2c1`, under setting [1], the outcome was “inactive; no positive results”.

On to `CNC[C@H](O)c1cccc(O)c1`, for which the outcome under setting [1] was “inactive; no positive results”.

`O=C(O)CN(CC(=O)O)CC(=O)O`: the Potency (TD50_Rat_Note: TD50 is harmonic mean of more than one positive test, TargetSites_Rat_Female: kidney, urinary bladder) was 1770 mg/kg/day and 370 mg/kg/day.

For the compound `Brc1cc(Br)c(-c2cc(Br)c(Br)cc2Br)cc1Br`, the Potency (TD50_Rat_Note: TD50 is harmonic mean of more than one positive test, TargetSites_Rat_Female: liver) was 0.322 mg/kg/day.

As for `CN(N=O)C(=O)Nc1nc2ccccc2s1`, for the setting “TargetSites_Rat_BothSexes: stomach”, the Potency was 1.13 mg/kg/day.

For the compound `Nc1ccc2ccccc2c1`, the Potency (TargetSites_Rat_Female: urinary bladder, TargetSites_Rat_BothSexes: no positive results) is 61.6 mg/kg/day.

For `NC(=O)c1cnccn1`, the outcome under setting [1] is “inactive; no positive results”.

In the case of `O=[N+]([O-])c1c(Cl)c(Cl)c(Cl)c(Cl)c1Cl`, the outcome under setting [1] was “inactive; no positive results”.

On to `CCN(CC)C(=S)S[Te](SC(=S)N(CC)CC)(SC(=S)N(CC)CC)SC(=S)N(CC)CC`, for which, under setting [1], the outcome is “inactive; no positive results”.

For the compound `O.O.O.O.O.O.O=S(=O)([O-])[O-].[Ni+2]`, the outcome under setting [1] is “inactive; no positive results”.

As for `O=C1CCC(=O)O1`, under setting [1], the outcome is “inactive; no positive results”.

Take `NCCCCCCCCCCC(=O)O`: under setting [1], the Potency was 1100 mg/kg/day.

For `CNc1ccc(N(CCO)CCO)cc1[N+](=O)[O-]`, under “TargetSites_Rat_Female: lung”, the Potency is 702 mg/kg/day.

On to `c1ccc(NNc2ccccc2)cc1`, for which, where the note is “TD50_Rat_Note: TD50 is harmonic mean of more than one positive test, TargetSites_Rat_Female: liver, mammary gland”, the Potency is 5.59 mg/kg/day.

Consider `CC1=CC(=O)CC(C)(C)C1`, for which the Potency under setting [1] is 1210 mg/kg/day.

As for `Cc1ccc(O)c(O)c1`, the Potency (TD50_Rat_Note: TD50 is harmonic mean of more than one positive test, harmonic mean of TD50 includes a value for upper 99% confidence li, TargetSites_Rat_Female: stomach) is 248 mg/kg/day.

As to `Clc1cc2c(cc1Cl)Oc1cc(Cl)c(Cl)cc1O2`, the Potency (TD50_Rat_Note: TD50 is harmonic mean of more than one positive test, greater than ten-fold variation among TD50 values for positive res, TargetSites_Rat_Female: liver, lung) is 2.35e-05 mg/kg/day.

For `OCCOCCOCCO`, the outcome was “inactive; no positive results”.

As to `O=C(O)/C=C/c1ccc(O)c(O)c1`, the Potency (TD50_Rat_Note: TD50 is harmonic mean of more than one positive test, TargetSites_Rat_Female: stomach) is 297 mg/kg/day.

Turning to `[CH3][Hg][Cl]`, under setting [1], the outcome was “inactive; no positive results”.

In the case of `CN(CCCO)N=O`, under “TD50_Rat_Note: TD50 is harmonic mean of more than one positive test, TargetSites_Rat_Female: liver, lung”, the Potency is 1.66 mg/kg/day.

For the compound `OC[C@H]1O[C@@H]2O[C@H]3[C@H](O)[C@@H](O)[C@@H](O[C@H]4[C@H](O)[C@@H](O)[C@@H](O[C@H]5[C@H](O)[C@@H](O)[C@@H](O[C@H]6[C@H](O)[C@@H](O)[C@@H](O[C@H]7[C@H](O)[C@@H](O)[C@@H](O[C@H]8[C@H](O)[C@@H](O)[C@@H](O[C@H]1[C@H](O)[C@H]2O)O[C@@H]8CO)O[C@@H]7CO)O[C@@H]6CO)O[C@@H]5CO)O[C@@H]4CO)O[C@@H]3CO`, the outcome under setting [1] is “inactive; no positive results”.

Turning to `CCOC(=O)N(CC)N=O`, where the note is “TD50_Rat_Note: TD50 is harmonic mean of more than one positive test, TargetSites_Rat_Female: esophagus, oral cavity, small intestine, stomach”, the Potency is 0.0904 mg/kg/day.

On to `C=C1C(CCl)(CCl)C2(Cl)C(Cl)C(Cl)C1(Cl)C2(Cl)Cl` (centres undefined), for which, under setting [1], the outcome is “inactive; no positive results”.

Regarding `COc1cc(/C=C/C(=O)CC(=O)/C=C/c2ccc(O)c(OC)c2)ccc1O`, the outcome was “inactive; no positive results”. For the same compound, the outcome under setting [1] is “inactive; no positive results”.

As for `C=CC#N`, the Potency (TD50_Rat_Note: TD50 is harmonic mean of more than one positive test, greater than ten-fold variation among TD50 values for positive res, TargetSites_Rat_Female: ear Zymbals gland, mammary gland, nasal cavity, nervous system, oral cavity, small intestine, stomach) is 16.9 mg/kg/day.

Consider `Cc1[nH]cnc1CSCCN=C(NC#N)N(C)N=O`, for which the outcome under setting [1] was “inactive; no positive results”.

Consider `[C-]1=CC=CC1.[C-]1=CC=CC1.[Cl-].[Cl-].[Ti+4]`, for which the outcome under setting [1] is “inactive; no positive results”.

For the compound `O=NN1CCCC1`, under “TD50_Rat_Note: TD50 is harmonic mean of more than one positive test, harmonic mean of TD50 includes a value for upper 99% confidence li, TargetSites_Rat_Female: liver, vascular system”, the Potency was 0.799 mg/kg/day.

For `C[C@@H]1C[C@H](C)CN(S(=O)(=O)c2ccc(Cl)c(C(=O)O)c2)C1`, the Potency was 4.85 mg/kg/day.

For `CN[C@@H](C)[C@H](O)c1ccccc1`, the outcome under setting [1] was “inactive; no positive results”.

`O=NN1CCOC(O)C1` (centres undefined): the result under setting [1] was inactive.

Turning to `COc1ccc([N+](=O)[O-])cc1N=Nc1c(O)c(C(=O)Nc2cccc([N+](=O)[O-])c2)cc2ccccc12`, the outcome under setting [1] is “inactive; no positive results”.

With `O=c1ccc(=O)[nH][nH]1`, under setting [1], the outcome was “inactive; no positive results”.

As for `CN(C)C(=O)Nc1cccc(C(F)(F)F)c1`, the outcome under setting [1] was “inactive; no positive results”.

As to `O=C1OC(=O)c2ccccc21`, the outcome under setting [1] was “inactive; no positive results”.

As for `ClCc1cccnc1`, under setting [1], the Potency was 433 mg/kg/day.

Regarding `CCOC(=O)C1OC1(C)c1ccccc1` (centres undefined), the outcome under setting [1] is “inactive; no positive results”.

As to `CC(O)c1ccccc1` (centres undefined), the Potency under setting [1] is 458 mg/kg/day.

Consider `Nc1ccc(-c2ccccc2)cc1O`, for which the outcome under setting [1] was inactive.

As to `C1CCOC1`, the Potency under setting [1] is 407 mg/kg/day.

As for `CCCCNC(=O)NS(=O)(=O)c1ccc(C)cc1`, the outcome under setting [1] was “inactive; no positive results”.

Consider `CC(C)OC(=O)Nc1cccc(Cl)c1`, for which the outcome under setting [1] was “inactive; no positive results”.

For the compound `CCc1ccc(C(c2ccc(CC)cc2)C(Cl)Cl)cc1`, the outcome under setting [1] was “inactive; no positive results”.

`O=C1CN=C(c2ccccc2)c2cc(Cl)ccc2N1CC1CC1`: under setting [1], the outcome is “inactive; no positive results”.

For `COc1ccc(CCN2CCC(Nc3nc4ccccc4n3Cc3ccc(F)cc3)CC2)cc1`, the outcome under setting [1] was “inactive; no positive results”.

In the case of `O=C/C=C/c1ccccc1`, the outcome under setting [1] is “inactive; no positive results”.

Take `Clc1ccc(Cl)cc1`: the Potency under setting [1] is 644 mg/kg/day.

Turning to `CCOc1ccc(NC(C)=O)cc1`, the Potency (TD50_Rat_Note: TD50 is harmonic mean of more than one positive test, TargetSites_Rat_Female: ear Zymbals gland, mammary gland, nasal cavity, urinary bladder) is 1250 mg/kg/day.

Consider `O=C(O)CNCC(=O)O`, for which the outcome under setting [1] is “inactive; no positive results”.

As to `CN(CCc1ccccc1)N=O`, for the setting “TD50_Rat_Note: TD50 is harmonic mean of more than one positive test”, the Potency is 0.00998 mg/kg/day.

`CCCCCCCCCCCCN(C)N=O`: the Potency (TD50_Rat_Note: TD50 is harmonic mean of more than one positive test, harmonic mean of TD50 includes a value for upper 99% confidence li, TargetSites_Rat_Female: urinary bladder) is 0.537 mg/kg/day.

As to `ClC1=C(Cl)[C@]2(Cl)[C@@H]3[C@@H]4C[C@@H]([C@H]5O[C@@H]45)[C@@H]3[C@@]1(Cl)C2(Cl)Cl`, the outcome under setting [1] was “inactive; no positive results”.

Consider `CN(N=O)C(=O)N[C@@H]1[C@@H](O)[C@H](O)[C@@H](CO)O[C@@H]1O`, for which the Potency (TD50_Rat_Note: positive test results only by intraperitoneal or intravenous injection, TD50 is harmonic mean of more than one positive, TargetSites_Rat_Female: kidney) is 0.963 mg/kg/day.

Turning to `C[C@]12CCC(=O)C=C1CC[C@@H]1[C@@H]2[C@@H](O)C[C@@]2(C)[C@H]1CC[C@]2(O)C(=O)CO`, under setting [1], the outcome was “inactive; no positive results”.

On to `O=C1CCCO1`, for which the outcome under setting [1] is “inactive; no positive results”.

With `Nc1ccc(Cl)c(N)c1`, under setting [1], the Potency was 315 mg/kg/day.

As to `C[N+](=O)[O-]`, the Potency (TargetSites_Rat_Female: mammary gland) was 40.4 mg/kg/day.

In the case of `Cc1nnc2n1-c1sc(CCc3ccc(CC(C)C)cc3)cc1C(c1ccccc1Cl)=NC2C` (centres undefined), the outcome under setting [1] was “inactive; no positive results”.

The values are drawn from PubChem BioAssay AID1208 (EPA DSSTox, 2008).
